pIC50: −log10 of the molar value.
System: asymmetric di-methyl PABP1 in RKO cells
Assay: RKO methylation assay, In Cell Western (ICW) for asymmetric di-methyl PABP1
Type: cell-based
Details: Homo sapiens, RKO, Cellular potencies, ICW PABP1me2a
Procedure, shortened: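 In-cell Western on fixed RKO cells after 48 h compound exposure: anti-asymmetric di-methyl PABP1 signal at 800 nm over DRAQ5 DNA signal at 700 nm. Percent inhibition set between DMSO wells and wells with 20 μM reference compound; IC50 curves fitted in triplicate.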

Row | pIC50 | Structure (SMILES)
1 | > 5.30 | CNCC(O)COc1cccc(-c2nc(NC3CCOC(C)(C)C3)c(C)c(-c3c(C)noc3C)n2)c1 (centres unmarked) [Example 290-1a]
2 | > 5.30 | CNC[C@@H](O)COc1ccc(Cl)c(-c2nc(-c3c(C)noc3C)c(C)c(N3CC4(CCCCO4)C3)n2)c1 [Example 290-3]
3 | 4.70 to 5.00 | CNCC(O)COc1cccc(-c2nc(N[C@@H]3CCOC3=O)c(C)c(-c3c(C)noc3C)n2)c1 (some centres unmarked) [Example 291-1a]
4 | > 5.30 | CCN1CCC(Nc2nc(-c3cc(OC[C@H](O)CNC)ccc3Cl)nc(-c3c(C)noc3C)c2C)C(F)(F)C1 (some centres unmarked) [Example 291-3]
5 | > 5.30 | CNCC(O)COc1cccc(-c2nc(NC3CCC3)c(C)c(-c3c(C)noc3C)n2)c1 (centres unmarked) [Example 292-1a]
6 | > 5.30 | CNC[C@@H](O)COc1ccc(Cl)c(-c2nc(NC3CCN(C4CC4)CC3(F)F)c(C)c(-c3c(C)noc3C)n2)c1 (some centres unmarked) [Example 292-3]
7 | > 5.30 | CNCC(O)COc1cccc(-c2nc(NC3CC3)c(C)c(-c3c(C)noc3C)n2)c1 (centres unmarked) [Example 293-1a]
8 | > 5.30 | CNC[C@@H](O)COc1ccc(Cl)c(-c2nc(-c3c(C)noc3C)c(C)c(N3Cc4cn(S(C)(=O)=O)nc4C3)n2)c1 [Example 293-3]
9 | > 5.30 | CNCC(O)COc1cccc(-c2nc(-c3c(C)noc3C)c(C)c(N3CCC4(CC3)CN(C3CC3)C4)n2)c1 (centres unmarked) [Example 294-1a]
10 | > 5.30 | CNC[C@@H](O)COc1ccc(F)c(-c2nc(-c3c(C)noc3C)c(Cl)c(N3CC4(CCOCC4)C3)n2)c1 [Example 294-3]
11 | > 5.30 | CCOC(=O)N1CC2(CCCN(c3nc(-c4cccc(OCC(O)CNC)c4)nc(-c4c(C)noc4C)c3C)C2)C1 (centres unmarked) [Example 295-1a]
12 | > 5.30 | CNC[C@@H](O)COc1ccc(F)c(-c2nc(-c3c(C)noc3C)c(Cl)c(N3Cc4nccnc4C3)n2)c1 [Example 295-3]
13 | 5.00 to 5.30 | CCS(=O)(=O)N1CC2(CCCN(c3nc(-c4cccc(OCC(O)CNC)c4)nc(-c4c(C)noc4C)c3C)C2)C1 (centres unmarked) [Example 296-1a]
14 | > 5.30 | CNC[C@@H](O)COc1ccc(Cl)c(-c2nc(-c3c(C)noc3C)c(C)c(N3Cc4cc(C)cnc4C3)n2)c1 [Example 296-3]
15 | 5.00 to 5.30 | CNCC(O)COc1cccc(-c2nc(-c3c(C)noc3C)c(C)c(N3CCCC4(CN(C(=O)N(C)C)C4)C3)n2)c1 (centres unmarked) [Example 297-1a]
16 | > 5.30 | CNC[C@@H](O)COc1ccc(Cl)c(-c2nc(-c3c(C)noc3C)c(F)c(N3Cc4nccnc4C3)n2)c1 [Example 297-3]
17 | 4.70 to 5.00 | CNCC(O)COc1cccc(-c2nc(-c3c(C)noc3C)c(C)c(N3CC(CO)(CNC(=O)N(C)C)C3)n2)c1 (centres unmarked) [Example 298-1a]
18 | > 5.30 | CNCC(O)COc1cccc(-c2nc(-c3c(C)noc3C)c(C)c(N3CC4(CN(C(=O)OC)C4)C3)n2)c1 (centres unmarked) [Example 299-1a]
19 | > 5.30 | CNCC(O)COc1cccc(-c2nc(NCC3(OC)CCOCC3)c(C)c(-c3c(C)noc3C)n2)c1 (centres unmarked) [Example 300-1a]
20 | 5.00 to 5.30 | CNCC(O)COc1cccc(-c2nc(NCC3(N4CCC4)CCOCC3)c(C)c(-c3c(C)noc3C)n2)c1 (centres unmarked) [Example 301-1a]
21 | > 5.30 | CNCC(O)COc1cccc(-c2nc(NCC3(N4CC(F)(F)C4)CCOCC3)c(C)c(-c3c(C)noc3C)n2)c1 (centres unmarked) [Example 302-1a]
22 | > 5.30 | CNCC(O)COc1cccc(-c2nc(OCC3CCN(C4CC4)CC3)c(C)c(-c3c(C)noc3C)n2)c1 (centres unmarked) [Example 303-1a]
23 | > 5.30 | CNC[C@H](O)COc1ccc(Cl)c(-c2nc(NC3CCN(C(=O)OC)CC3)c(Cl)c(-c3c(C)noc3C)n2)c1 [Example 305-1a]

Row | pIC50 | Structure (SMILES)
24 | > 5.30 | CNCC(O)COc1cccc(-c2nc(NC[C@@H]3CN(C(=O)OC)CCO3)c(C)c(-c3c(C)noc3C)n2)c1 (some centres unmarked) [Example 306-1a]
25 | 4.70 to 5.00 | CNCC(O)COc1cccc(-c2nc(N[C@@H]3CCNC3)c(C)c(-c3c(C)noc3C)n2)c1 (some centres unmarked) [Example 307-1a]
26 | > 5.30 | CNCC(O)COc1cccc(-c2nc(-c3c(C)noc3C)c(C)c(N(C)C)n2)c1 (centres unmarked) [Example 308-1a]
27 | > 5.30 | CNCC(O)COc1cccc(-c2nc(-c3c(C)noc3C)c(C)c(N3CC4(CN(C(=O)N(C)C)C4)C3)n2)c1 (centres unmarked) [Example 309-1a]
28 | 5.00 to 5.30 | CNCC(O)COc1cc(Cl)cc(-c2nc(N[C@@H]3CCOC3)c(C)c(-c3ccncc3)n2)c1 (some centres unmarked) [Example 331-1a]
29 | 4.70 to 5.00 | CNCC(O)COc1cccc(-c2nc(N[C@@H]3CCOC3)c(C)c(-c3ccncc3)n2)c1 (some centres unmarked) [Example 332-1a]
30 | 4.70 to 5.00 | CNCC(O)COc1cc(Cl)cc(-c2nc(-c3ccncc3)c(C)c(N(C)[C@H]3CCOC3)n2)c1 (some centres unmarked) [Example 334-1a]
31 | 5.00 to 5.30 | CNCC(O)COc1cccc(-c2nc(NC3CCOC3)c(C)c(-c3cn(C)nn3)n2)c1 (centres unmarked) [Example 335-1a]
32 | 4.70 to 5.00 | CNCC(O)COc1cccc(-c2nc(N[C@@H]3CCOC3)c(C)c(-c3cn[nH]c3)n2)c1 (some centres unmarked) [Example 338-1a]
33 | 4.70 to 5.00 | CNCC(O)COc1cccc(-c2nc(-c3ccncc3)c(C)c(N(C)[C@@H]3CCOC3)n2)c1 (some centres unmarked) [Example 339-1a]
34 | 4.70 to 5.00 | CNCC(O)COc1cccc(-c2nc(N[C@@H]3CCOC3)c(C)c(-c3cncc(C(=O)OC)c3)n2)c1 (some centres unmarked) [Example 340-1a]
35 | 4.70 to 5.00 | CNCC(O)COc1cccc(-c2nc(N[C@@H]3CCOC3)c(C)c(-c3cncc(C#N)c3)n2)c1 (some centres unmarked) [Example 341-1a]
36 | 4.70 to 5.00 | CNCC(O)COc1cccc(-c2nc(N[C@@H]3CCOC3)c(C)c(-c3cncnc3)n2)c1 (some centres unmarked) [Example 350-1a]
37 | 5.00 to 5.30 | CNCC(O)COc1cccc(-c2nc(NC3CCOC3)c(C)c(N3CCN[C@@H](C)C3)n2)c1 (some centres unmarked) [Example 351-1a]
38 | 4.70 to 5.00 | CNCC(O)COc1cccc(-c2nc(NC3CCOC3)c(C)c(N3CCNC[C@H]3C)n2)c1 (some centres unmarked) [Example 352-1a]
39 | 4.70 to 5.00 | CNCC(O)COc1cccc(-c2nc(N[C@@H]3CCOC3)c(C)c(-c3cnc4[nH]ccc4c3)n2)c1 (some centres unmarked) [Example 355-1a]
40 | 4.70 to 5.00 | CNCC(O)COc1cccc(-c2nc(N[C@@H]3CCOC3)c(C)c(-c3cnc(OC)nc3)n2)c1 (some centres unmarked) [Example 356-1a]
41 | 4.70 to 5.00 | CNCC(O)COc1cccc(-c2nc(N[C@@H]3CCOC3)c(C)c(N3CCC[C@@H](O)C3)n2)c1 (some centres unmarked) [Example 358-1a]
42 | 4.70 to 5.00 | CNCC(O)COc1cccc(-c2nc(N[C@@H]3CCOC3)c(C)c(N3CCn4ccnc4C3)n2)c1 (some centres unmarked) [Example 359-1a]
43 | 4.70 to 5.00 | CNCC(O)COc1cccc(-c2nc(NCCCCl)c(C)c(N[C@@H]3CCOC3)n2)c1 (some centres unmarked) [Example 366-1a]
44 | 5.00 to 5.30 | CNCC(O)COc1cccc(-c2nc(N[C@@H]3CCOC3)c(C)c(N3CCC(N4CCOCC4)CC3)n2)c1 (some centres unmarked) [Example 367-1a]
45 | > 5.30 | CNCC(O)COc1cccc(-c2nc(N[C@@H]3CCOC3)c(C)c(N3CC[C@H](N(C)C)C3)n2)c1 (some centres unmarked) [Example 368-1a]
46 | 4.70 to 5.00 | CNCC(O)COc1cccc(-c2nc(N[C@@H]3CCOC3)c(C)c(N3CC[C@@H](OC)C3)n2)c1 (some centres unmarked) [Example 369-1a]

Row | pIC50 | Structure (SMILES)
47 | 5.00 to 5.30 | CNCC(O)COc1cccc(-c2nc(N[C@@H]3CCOC3)c(C)c(N3CCC(OC)CC3)n2)c1 (some centres unmarked) [Example 370-1a]
48 | 5.00 to 5.30 | CNCC(O)COc1cccc(-c2nc(N[C@@H]3CCOC3)c(Cl)c(N3CCOCC3)n2)c1 (some centres unmarked) [Example 376-1a]
49 | 4.70 to 5.00 | CNCC(O)COc1cccc(-c2nc(N[C@@H]3CCOC3)c(C)c(N3CCC3)n2)c1 (some centres unmarked) [Example 377-1a]
50 | 4.70 to 5.00 | CNCC(O)COc1cccc(-c2nc(N[C@@H]3CCOC3)c(C)c(N3CCC[C@H]4CN(Cc5ccccc5)C[C@H]43)n2)c1 (some centres unmarked) [Example 378-1a]
51 | 4.70 to 5.00 | CNCC(O)COc1cccc(-c2nc(N[C@@H]3CCOC3)c(C)c(-n3nc(C)cc3C)n2)c1 (some centres unmarked) [Example 382-1a]
52 | 4.70 to 5.00 | CNCC(O)COc1cccc(-c2nc(N[C@@H]3CCOC3)c(C)c(N3CCN(CC(=O)N(C)C)CC3)n2)c1 (some centres unmarked) [Example 391-1a]
53 | 5.00 to 5.30 | CNCC(O)COc1cccc(-c2nc(N[C@@H]3CCOC3)c(C)c(N3CC[C@@H](N(C)C)C3)n2)c1 (some centres unmarked) [Example 392-1a]
54 | > 5.30 | CNCC(O)COc1cccc(-c2nc(N[C@@H]3CCOC3)c(C)c(N3Cc4cccnc4C3)n2)c1 (some centres unmarked) [Example 394-1a]
55 | 4.70 to 5.00 | CNCC(O)COc1cccc(-c2nc(N[C@@H]3CCOC3)c(C)c(N3CCN(C(C)=O)[C@@H](C)C3)n2)c1 (some centres unmarked) [Example 396-1a]
56 | 4.70 to 5.00 | CNCC(O)COc1cccc(-c2nc(NC3CCOC3)c(C)c(C(=O)NC3CCN(C)CC3)n2)c1 (centres unmarked) [Example 397-1a]
57 | 4.70 to 5.00 | CNCC(O)COc1cccc(-c2nc(NC3CCOC3)c(C)c(N3CC4(CCNCC4)c4ccccc43)n2)c1 (centres unmarked) [Example 398-1a]
58 | 5.00 to 5.30 | CNCC(O)COc1cccc(-c2nc(N[C@@H]3CCOC3)c(C)c(-c3ccc(OC)nc3)n2)c1 (some centres unmarked) [Example 408-1a]
59 | 4.70 to 5.00 | CNCC(O)COc1cccc(-c2nc(N[C@@H]3CCOC3)c(C)c(N3CC4CCC(C3)O4)n2)c1 (some centres unmarked) [Example 412-1a]
60 | 4.70 to 5.00 | CNCC(O)COc1cccc(-c2nc(N[C@@H]3CCOC3)c(C)c(C3=CC(C)(C)NC(C)(C)C3)n2)c1 (some centres unmarked) [Example 415-1a]
61 | 5.00 to 5.30 | CNCC(O)COc1cccc(-c2nc(NC3CCOC3)c(C)c(N3CCN(C(C)=O)C[C@H]3C)n2)c1 (some centres unmarked) [Example 421-1a]
62 | 4.70 to 5.00 | CNCC(O)COc1cccc(-c2nc(N[C@@H]3CCOC3)c(C)c(N3CCNCC3)n2)c1 (some centres unmarked) [Example 422-1a]
63 | 4.70 to 5.00 | CNCC(O)COc1cccc(-c2nc(N[C@@H]3CCOC3)c(C)c(N3CCC4(CC3)CNC(=O)C4)n2)c1 (some centres unmarked) [Example 424-1a]
64 | 4.70 to 5.00 | CNCC(O)COc1cccc(-c2nc(N[C@@H]3CCOC3)c(C)c(N3CCS(=O)(=O)CC3)n2)c1 (some centres unmarked) [Example 425-1a]
65 | > 5.30 | CNCC(O)COc1cccc(-c2nc(N[C@@H]3CCOC3)c(C)c(N3Cc4ccncc4C3)n2)c1 (some centres unmarked) [Example 427-1a]
66 | 4.70 to 5.00 | CNCC(O)COc1cccc(-c2nc(N[C@@H]3CCOC3)c(C)c(N3CCC4(CCNCC4)CC3)n2)c1 (some centres unmarked) [Example 429-1a]
67 | > 5.30 | CNCC(O)COc1cccc(-c2nc(N[C@@H]3CCOC3)c(C)c(N3CCN(S(C)(=O)=O)CC3)n2)c1 (some centres unmarked) [Example 434-1a]

Row | Structure (SMILES) | pIC50
68 | CNCC(O)COc1cccc(-c2nc(N[C@@H]3CCOC3)c(C)c(N(C)C3CCN(C)CC3)n2)c1 (some centres unmarked) [Example 379-1a] | 4.70 to 5.00

Reference: patent publication US10633389B2, “CARM1 inhibitors and uses thereof” (Epizyme, Inc., priority 2013, dated 2020)
